Test results from ChEMBL document CHEMBL1141524 (Bioorg Med Chem Lett, 2008).
pKi: −log10 of the molar value. “And” between values parts separate entries of the source, which are not always exact repeats. Identical values can stand only once. Non-standard residues stand in square brackets, D forms with d. Residues, ends and D or L forms follow the SMILES beside them. Gly(N-4-hydroxybenzyl) = O=C(O)CNCc1ccc(O)cc1

Assay: Displacement of [3H]neurotensin from pig NTR1
Set-up: species or system Sus scrofa

Row | Molecule | pKi
1 | CC[C@H](C)[C@H](NC(=O)[C@H](Cc1ccc(O)cc1)N1CC=C[C@]2(CCCN2C(=O)[C@H](CCCNC(=N)N)NC(=O)[C@@H](N)CCCNC(=N)N)C1=O)C(=O)N[C@@H](CC(C)C)C(=O)O | 5.13
2 | CC[C@H](C)[C@H](NC(=O)[C@H](Cc1ccc(O)cc1)NC(=O)[C@@H]1CCCN1C(=O)[C@H](CCCCN)NC(=O)CNCCCCN)C(=O)N[C@@H](CC(C)C)C(=O)O | 9.35
3 | CC[C@H](C)[C@H](NC(=O)[C@H](Cc1ccc(O)cc1)NC(=O)[C@@H]1CCCN1C(=O)[C@H](CCCCN)NC(=O)[C@@H](N)CCCCN)C(=O)N[C@@H](CC(C)C)C(=O)O | 8.59
4 | CC[C@H](C)[C@H](NC(=O)[C@H](Cc1ccc(O)cc1)NC(=O)C[C@@H]1CCCN1C(=O)[C@H](CCCNC(=N)N)NC(=O)[C@@H](N)CCCNC(=N)N)C(=O)N[C@@H](CC(C)C)C(=O)O | 7.55
5 | CC[C@H](C)[C@H](NC(=O)[C@H](Cc1ccc(O)cc1)NC(=O)[C@@H]1CCCN1C(=O)[C@H](CCCNC(=N)N)NC(=O)[C@@H](N)CCCNC(=N)N)C(=O)N[C@@H](CC(C)C)C(N)=O | 9.74
6 | CC[C@H](C)[C@H](NC(=O)[C@H](Cc1ccc(O)cc1)NC(=O)[C@@H]1CCCN1C(=O)[C@H](CCCNC(=N)N)NC(=O)CCC(=O)O)C(=O)N[C@@H](CC(C)C)C(=O)O | 5.64
7 | CC[C@@H](C)[C@H](NC(=O)[C@H](Cc1ccc(O)cc1)N1CC=CC[C@]2(CCCN2C(=O)[C@H](CCCNC(=N)N)NC(=O)[C@@H](N)CCCNC(=N)N)C1=O)C(=O)N[C@@H](CC(C)C)C(=O)O | 4.74
8 | CC[C@H](C)[C@H](NC(=O)[C@H](Cc1ccc(O)cc1)N1CC/C=C\C[C@H]2CCN(C(=O)[C@H](CCCNC(=N)N)NC(=O)[C@@H](N)CCCNC(=N)N)[C@@H]2C1=O)C(=O)N[C@@H](CC(C)C)C(=O)O | 5.62 and 5.07
9 | CC[C@H](C)[C@H](NC(=O)[C@H](Cc1ccc(O)cc1)NC(=O)[C@@H]1CCCN1C(=O)CN(CCCCN)C(=O)[C@@H](N)CCCCN)C(=O)N[C@@H](CC(C)C)C(=O)O | 8.24
10 | CC[C@H](C)[C@H](NC(=O)[C@H](Cc1ccc(O)cc1)N1C(=O)NC(=O)C2(CCCN2C(=O)[C@H](CCCNC(=N)N)NC(=O)[C@@H](N)CCCNC(=N)N)C1=O)C(=O)N[C@@H](CC(C)C)C(=O)O (some centres not stated) | 5.00
11 | CC[C@H](C)[C@H](NC(=O)[C@H](Cc1ccc(O)cc1)NC(=O)[C@@H]1CCCN1C(=O)[C@H](CCCNC(=N)N)NC(=O)C[N+](C)(C)C)C(=O)N[C@@H](CC(C)C)C(=O)O | 9.19
12 | CC[C@H](C)[C@H](NC(=O)CN(Cc1ccc(O)cc1)C(=O)[C@@H]1CCCN1C(=O)[C@H](CCCCN)NC(=O)[C@@H](N)CCCCN)C(=O)N[C@@H](CC(C)C)C(=O)O (H-KKP[Gly(N-4-hydroxybenzyl)]IL-OH) | 4.96
13 | CC[C@H](C)[C@H](NC(=O)[C@H](Cc1ccc(O)cc1)N1C(=O)NC(=O)C2(CCCN2C(=O)[C@H](CCCNC(=N)N)NC(=O)[C@@H](N)CCCNC(=N)N)C1=O)C(=O)N[C@@H](CC(C)C)C(=O)O (single isomer, unassigned; diastereomer 1) | 5.85
14 | H-DRPYIL-OH | 6.82
15 | H-RRAPYIL-OH | 8.02
16 | H-RRPYAIL-OH | 8.17
17 | H-RRPYILA-OH | 9.57
